Test results: patent US12522583B2, “Benzimidazole derivatives and aza-benzimidazole derivatives as Janus kinase 2 inhibitors and uses thereof” (Dana-Farber Cancer Institute, Inc., priority 2018, dated 2026)

Columns and labels:
[1] = biological target: DCAMKL1 (Homo sapiens (Human), UniProt O15075); test: KINOMEscan; assay type: binding; conditions: read-out: percent control
Text: (§1) Example 2. In Vitro Kinase Selectivity Profiling of the Compounds of the Present Disclosure

[2] = biological target: CLK4 (Homo sapiens (Human), UniProt Q9HAZ1); test: KINOMEscan; assay type: binding; conditions: read-out: percent control
Text: as §1

[3] = biological target: AAK1 (Homo sapiens (Human), UniProt Q2M2I8); test: KINOMEscan; assay type: binding; conditions: read-out: percent control
Text: as §1

[4] = biological target: PAK7 (Homo sapiens (Human), UniProt Q9P286); test: KINOMEscan; assay type: binding; conditions: read-out: percent control
Text: as §1

[5] = biological target: CSNK1E (Homo sapiens (Human), UniProt P49674); test: KINOMEscan; assay type: binding; conditions: read-out: percent control
Text: as §1

[6] = biological target: CSNK2A1 (Homo sapiens (Human), UniProt P68400); test: KINOMEscan; assay type: binding; conditions: read-out: percent control
Text: as §1

[7] = biological target: CDC2L1 (Homo sapiens (Human), UniProt P21127); test: KINOMEscan; assay type: binding; conditions: read-out: percent control
Text: as §1

[8] = biological target: PIK3CA(C420R) (Homo sapiens (Human), UniProt P42336, C420R); test: KINOMEscan; assay type: binding; conditions: read-out: percent control
Text: as §1

[9] = biological target: FRK (Homo sapiens (Human), UniProt P42685); test: KINOMEscan; assay type: binding; conditions: read-out: percent control
Text: as §1

[10] = biological target: PIM1 (Homo sapiens (Human), UniProt P11309); test: KINOMEscan; assay type: binding; conditions: read-out: percent control
Text: as §1

[11] = biological target: CDKL3 (Homo sapiens (Human), UniProt Q8IVW4); test: KINOMEscan; assay type: binding; conditions: read-out: percent control
Text: as §1

[12] = biological target: AURKA (Homo sapiens (Human), UniProt O14965); test: KINOMEscan; assay type: binding; conditions: read-out: percent control
Text: as §1

[13] = biological target: OSR1 (Homo sapiens (Human), UniProt O95747); test: KINOMEscan; assay type: binding; conditions: read-out: percent control
Text: as §1

[14] = biological target: TNK1 (Homo sapiens (Human), UniProt Q13470); test: KINOMEscan; assay type: binding; conditions: read-out: percent control
Text: as §1

[15] = biological target: CAMK1 (Homo sapiens (Human), UniProt Q14012); test: KINOMEscan; assay type: binding; conditions: read-out: percent control
Text: as §1

[16] = biological target: CASK (Homo sapiens (Human), UniProt O14936); test: KINOMEscan; assay type: binding; conditions: read-out: percent control
Text: as §1

[17] = biological target: CDKL1 (Homo sapiens (Human), UniProt Q00532); test: KINOMEscan; assay type: binding; conditions: read-out: percent control
Text: as §1

[18] = biological target: DAPK1 (Homo sapiens (Human), UniProt P53355); test: KINOMEscan; assay type: binding; conditions: read-out: percent control
Text: as §1

[19] = biological target: PIK3CA(Q546K) (Homo sapiens (Human), UniProt P42336, Q546K); test: KINOMEscan; assay type: binding; conditions: read-out: percent control
Text: as §1

[20] = biological target: KIT(D816V) (Homo sapiens (Human), UniProt P10721, D816V); test: KINOMEscan; assay type: binding; conditions: read-out: percent control
Text: as §1

[21] = biological target: DRAK1 (Homo sapiens (Human), UniProt Q9UEE5); test: KINOMEscan; assay type: binding; conditions: read-out: percent control
Text: as §1

[22] = biological target: YANK1 (Homo sapiens (Human), UniProt Q8WU08); test: KINOMEscan; assay type: binding; conditions: read-out: percent control
Text: as §1

[23] = biological target: MERTK (Homo sapiens (Human), UniProt Q12866); test: KINOMEscan; assay type: binding; conditions: read-out: percent control
Text: as §1

[24] = biological target: QSK (Homo sapiens (Human), UniProt Q9Y2K2); test: KINOMEscan; assay type: binding; conditions: read-out: percent control
Text: as §1

[25] = biological target: RAF1 (Homo sapiens (Human), UniProt P04049); test: KINOMEscan; assay type: binding; conditions: read-out: percent control
Text: as §1

[26] = biological target: PIK3CA(H1047Y) (Homo sapiens (Human), UniProt P42336, H1047Y); test: KINOMEscan; assay type: binding; conditions: read-out: percent control
Text: as §1

[27] = biological target: SgK110 (Homo sapiens (Human), UniProt P0C264); test: KINOMEscan; assay type: binding; conditions: read-out: percent control
Text: as §1

[28] = biological target: PKMYT1 (Homo sapiens (Human), UniProt Q99640); test: KINOMEscan; assay type: binding; conditions: read-out: percent control
Text: as §1

[29] = biological target: PRKD2 (Homo sapiens (Human), UniProt Q9BZL6); test: KINOMEscan; assay type: binding; conditions: read-out: percent control
Text: as §1

[30] = biological target: RIPK5 (Homo sapiens (Human), UniProt Q6XUX3); test: KINOMEscan; assay type: binding; conditions: read-out: percent control
Text: as §1

[31] = biological target: ERBB2 (Homo sapiens (Human), UniProt P04626); test: KINOMEscan; assay type: binding; conditions: read-out: percent control
Text: as §1

[32] = biological target: MAP3K4 (Homo sapiens (Human), UniProt Q9Y6R4); test: KINOMEscan; assay type: binding; conditions: read-out: percent control
Text: as §1

[33] = biological target: MTOR (Homo sapiens (Human), UniProt P42345); test: KINOMEscan; assay type: binding; conditions: read-out: percent control
Text: as §1

[34] = biological target: DDR1 (Homo sapiens (Human), UniProt Q08345); test: KINOMEscan; assay type: binding; conditions: read-out: percent control
Text: as §1

[35] = biological target: ERK8 (Homo sapiens (Human), UniProt Q8TD08); test: KINOMEscan; assay type: binding; conditions: read-out: percent control
Text: as §1

[36] = biological target: FLT3(K663Q) (Homo sapiens (Human), UniProt P36888, K663Q); test: KINOMEscan; assay type: binding; conditions: read-out: percent control
Text: as §1

[37] = biological target: CSNK1A1 (Homo sapiens (Human), UniProt P48729); test: KINOMEscan; assay type: binding; conditions: read-out: percent control
Text: as §1

[38] = biological target: MLCK (Homo sapiens (Human), UniProt Q32MK0); test: KINOMEscan; assay type: binding; conditions: read-out: percent control
Text: as §1

[39] = biological target: JAK2 (Homo sapiens (Human), UniProt O60674); test: JAK2 Z-Lyte biochemical assay
Protocol: Example 3. JAK2 Z-Lyte Biochemical Assay of the Compounds of the Present Disclosure
The JAK2 Z-Lyte biochemical assay was performed according to manufacturer's instructions (Life Technologies).

KIT(D816V), sequence (P10721 26-976 D816V): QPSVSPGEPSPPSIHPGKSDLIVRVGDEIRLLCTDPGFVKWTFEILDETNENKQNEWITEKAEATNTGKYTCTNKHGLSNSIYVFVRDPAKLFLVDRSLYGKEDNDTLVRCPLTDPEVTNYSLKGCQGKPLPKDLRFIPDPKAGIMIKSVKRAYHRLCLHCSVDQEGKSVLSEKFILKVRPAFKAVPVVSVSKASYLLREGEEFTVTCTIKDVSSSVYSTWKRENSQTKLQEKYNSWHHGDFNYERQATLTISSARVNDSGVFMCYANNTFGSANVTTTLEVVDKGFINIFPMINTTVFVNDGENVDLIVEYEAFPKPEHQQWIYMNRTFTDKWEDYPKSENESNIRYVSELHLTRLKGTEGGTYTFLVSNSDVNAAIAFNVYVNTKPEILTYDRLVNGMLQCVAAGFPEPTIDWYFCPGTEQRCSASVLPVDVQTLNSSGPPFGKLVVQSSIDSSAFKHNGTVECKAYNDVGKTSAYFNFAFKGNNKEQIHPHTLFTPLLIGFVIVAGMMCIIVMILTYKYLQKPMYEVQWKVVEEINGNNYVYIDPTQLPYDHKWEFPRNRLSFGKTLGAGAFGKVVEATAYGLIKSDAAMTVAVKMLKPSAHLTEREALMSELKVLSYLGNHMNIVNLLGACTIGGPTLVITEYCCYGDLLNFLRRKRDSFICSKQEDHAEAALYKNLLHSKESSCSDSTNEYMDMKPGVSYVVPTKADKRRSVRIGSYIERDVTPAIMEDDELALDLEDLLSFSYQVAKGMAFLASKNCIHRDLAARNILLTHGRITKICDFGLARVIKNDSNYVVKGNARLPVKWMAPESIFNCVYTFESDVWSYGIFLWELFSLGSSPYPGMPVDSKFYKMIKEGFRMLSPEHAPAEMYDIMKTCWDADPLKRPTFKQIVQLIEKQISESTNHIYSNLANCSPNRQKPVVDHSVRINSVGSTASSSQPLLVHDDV
PAK7, sequence (Q9P286 whole entry): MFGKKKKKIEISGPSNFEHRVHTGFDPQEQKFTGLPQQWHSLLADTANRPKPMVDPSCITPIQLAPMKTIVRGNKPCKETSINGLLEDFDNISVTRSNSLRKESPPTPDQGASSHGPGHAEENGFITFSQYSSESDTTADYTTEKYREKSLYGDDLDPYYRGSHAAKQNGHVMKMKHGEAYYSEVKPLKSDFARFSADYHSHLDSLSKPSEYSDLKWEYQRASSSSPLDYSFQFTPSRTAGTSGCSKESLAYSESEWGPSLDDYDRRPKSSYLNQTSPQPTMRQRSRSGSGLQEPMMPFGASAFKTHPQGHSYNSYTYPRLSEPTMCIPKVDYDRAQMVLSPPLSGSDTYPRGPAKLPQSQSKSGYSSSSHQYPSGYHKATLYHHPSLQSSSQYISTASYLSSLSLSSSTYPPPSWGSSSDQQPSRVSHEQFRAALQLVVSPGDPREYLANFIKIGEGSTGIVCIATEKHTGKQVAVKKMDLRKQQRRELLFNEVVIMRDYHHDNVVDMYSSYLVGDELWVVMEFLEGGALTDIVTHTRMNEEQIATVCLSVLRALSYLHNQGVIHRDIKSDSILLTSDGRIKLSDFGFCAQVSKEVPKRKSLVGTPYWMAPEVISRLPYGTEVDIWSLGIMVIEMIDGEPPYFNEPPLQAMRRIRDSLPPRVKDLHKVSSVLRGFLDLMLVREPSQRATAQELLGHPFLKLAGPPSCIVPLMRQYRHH
CDKL3, sequence (Q8IVW4 whole entry): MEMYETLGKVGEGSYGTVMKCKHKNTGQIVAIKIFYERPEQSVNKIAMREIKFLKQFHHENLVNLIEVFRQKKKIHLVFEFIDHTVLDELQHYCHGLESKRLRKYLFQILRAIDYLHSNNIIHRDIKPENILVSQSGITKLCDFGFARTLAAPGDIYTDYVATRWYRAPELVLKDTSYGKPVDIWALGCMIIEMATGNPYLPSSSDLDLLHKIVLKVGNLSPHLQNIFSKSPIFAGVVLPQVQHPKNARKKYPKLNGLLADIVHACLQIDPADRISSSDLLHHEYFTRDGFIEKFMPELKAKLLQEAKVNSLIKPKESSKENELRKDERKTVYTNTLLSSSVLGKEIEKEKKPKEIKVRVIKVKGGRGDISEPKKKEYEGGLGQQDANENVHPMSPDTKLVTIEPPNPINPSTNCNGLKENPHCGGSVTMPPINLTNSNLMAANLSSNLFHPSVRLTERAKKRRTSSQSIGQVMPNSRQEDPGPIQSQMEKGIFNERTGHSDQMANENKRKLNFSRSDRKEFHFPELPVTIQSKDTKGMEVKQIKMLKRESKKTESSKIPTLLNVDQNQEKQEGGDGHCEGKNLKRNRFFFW
ERBB2, sequence (P04626 23-1255): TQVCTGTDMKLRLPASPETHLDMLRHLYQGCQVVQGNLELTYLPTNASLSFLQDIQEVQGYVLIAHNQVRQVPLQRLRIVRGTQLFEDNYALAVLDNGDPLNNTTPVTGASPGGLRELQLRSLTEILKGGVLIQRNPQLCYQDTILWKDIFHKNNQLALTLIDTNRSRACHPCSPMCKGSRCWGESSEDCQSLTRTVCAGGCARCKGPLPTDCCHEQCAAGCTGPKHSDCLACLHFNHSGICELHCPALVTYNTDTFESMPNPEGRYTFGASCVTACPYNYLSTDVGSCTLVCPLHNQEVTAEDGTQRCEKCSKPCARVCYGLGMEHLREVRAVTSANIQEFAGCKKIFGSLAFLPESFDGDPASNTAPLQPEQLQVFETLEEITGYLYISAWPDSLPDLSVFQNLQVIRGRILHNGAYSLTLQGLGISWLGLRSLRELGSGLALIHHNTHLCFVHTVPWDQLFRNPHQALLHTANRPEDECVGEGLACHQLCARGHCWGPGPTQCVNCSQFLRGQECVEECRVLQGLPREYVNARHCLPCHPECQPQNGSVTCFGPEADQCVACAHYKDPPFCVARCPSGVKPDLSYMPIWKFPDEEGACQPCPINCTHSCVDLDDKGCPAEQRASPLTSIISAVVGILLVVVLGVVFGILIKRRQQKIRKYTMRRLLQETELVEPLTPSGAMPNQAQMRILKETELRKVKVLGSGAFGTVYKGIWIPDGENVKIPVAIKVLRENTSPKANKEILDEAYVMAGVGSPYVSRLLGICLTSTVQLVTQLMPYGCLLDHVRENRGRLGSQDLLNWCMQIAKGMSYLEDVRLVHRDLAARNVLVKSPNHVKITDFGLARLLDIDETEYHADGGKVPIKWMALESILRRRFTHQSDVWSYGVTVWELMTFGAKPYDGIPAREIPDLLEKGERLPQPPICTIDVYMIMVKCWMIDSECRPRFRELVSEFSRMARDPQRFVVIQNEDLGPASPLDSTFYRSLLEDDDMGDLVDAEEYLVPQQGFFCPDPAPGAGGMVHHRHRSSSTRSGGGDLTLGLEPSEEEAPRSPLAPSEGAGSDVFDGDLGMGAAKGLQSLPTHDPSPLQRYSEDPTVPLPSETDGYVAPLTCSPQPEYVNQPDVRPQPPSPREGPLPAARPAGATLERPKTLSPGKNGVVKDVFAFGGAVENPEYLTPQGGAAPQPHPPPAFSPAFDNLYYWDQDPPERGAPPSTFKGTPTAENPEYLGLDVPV
MERTK, sequence (Q12866 21-999): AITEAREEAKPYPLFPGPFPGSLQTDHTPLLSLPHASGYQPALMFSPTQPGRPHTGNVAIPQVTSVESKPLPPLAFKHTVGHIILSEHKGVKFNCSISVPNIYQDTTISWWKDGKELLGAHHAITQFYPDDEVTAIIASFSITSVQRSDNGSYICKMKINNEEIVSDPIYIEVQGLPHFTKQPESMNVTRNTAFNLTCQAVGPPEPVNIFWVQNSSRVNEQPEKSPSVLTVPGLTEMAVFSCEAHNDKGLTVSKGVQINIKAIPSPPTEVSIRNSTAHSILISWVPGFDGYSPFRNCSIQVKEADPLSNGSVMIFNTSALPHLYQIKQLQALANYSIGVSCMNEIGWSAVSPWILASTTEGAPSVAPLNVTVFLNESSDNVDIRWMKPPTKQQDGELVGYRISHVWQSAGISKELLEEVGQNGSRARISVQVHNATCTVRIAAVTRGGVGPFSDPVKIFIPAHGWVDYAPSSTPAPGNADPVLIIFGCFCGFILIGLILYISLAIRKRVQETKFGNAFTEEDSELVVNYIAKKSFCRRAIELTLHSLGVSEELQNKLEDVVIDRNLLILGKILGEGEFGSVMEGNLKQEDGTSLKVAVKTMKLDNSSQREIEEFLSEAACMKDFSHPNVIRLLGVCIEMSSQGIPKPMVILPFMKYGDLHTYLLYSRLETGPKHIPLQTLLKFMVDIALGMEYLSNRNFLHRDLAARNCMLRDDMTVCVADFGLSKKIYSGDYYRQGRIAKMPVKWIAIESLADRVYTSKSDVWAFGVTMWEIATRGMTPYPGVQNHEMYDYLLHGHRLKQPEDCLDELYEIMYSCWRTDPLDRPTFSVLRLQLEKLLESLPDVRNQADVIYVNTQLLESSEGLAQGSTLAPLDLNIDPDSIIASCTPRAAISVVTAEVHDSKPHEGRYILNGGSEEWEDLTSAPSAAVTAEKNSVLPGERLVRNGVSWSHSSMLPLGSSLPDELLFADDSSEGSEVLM
OSR1, sequence (O95747 whole entry): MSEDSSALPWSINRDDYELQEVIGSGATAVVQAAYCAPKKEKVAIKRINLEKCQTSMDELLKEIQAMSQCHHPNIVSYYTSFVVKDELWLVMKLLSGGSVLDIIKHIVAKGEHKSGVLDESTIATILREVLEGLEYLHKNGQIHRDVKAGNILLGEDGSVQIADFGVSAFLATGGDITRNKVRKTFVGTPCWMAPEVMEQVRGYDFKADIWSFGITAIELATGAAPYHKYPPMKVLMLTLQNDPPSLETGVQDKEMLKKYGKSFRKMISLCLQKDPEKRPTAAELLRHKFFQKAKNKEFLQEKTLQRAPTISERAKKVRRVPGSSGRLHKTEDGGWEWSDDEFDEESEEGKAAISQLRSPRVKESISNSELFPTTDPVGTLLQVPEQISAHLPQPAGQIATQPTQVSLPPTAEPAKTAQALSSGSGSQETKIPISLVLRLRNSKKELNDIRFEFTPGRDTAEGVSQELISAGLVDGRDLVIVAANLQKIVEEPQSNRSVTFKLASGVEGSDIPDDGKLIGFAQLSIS

| Structure (SMILES) | remaining binding at 1 µM [1] [%] | remaining binding at 1 µM [2] [%] | remaining binding at 1 µM [3] [%] | remaining binding at 1 µM [4] [%] | remaining binding at 1 µM [5] [%] | remaining binding at 1 µM [6] [%] | remaining binding at 1 µM [7] [%] | remaining binding at 1 µM [8] [%] | remaining binding at 1 µM [9] [%] | remaining binding at 1 µM [10] [%] | remaining binding at 1 µM [11] [%] | remaining binding at 1 µM [12] [%] | remaining binding at 1 µM [13] [%] | remaining binding at 1 µM [14] [%] | remaining binding at 1 µM [15] [%] | remaining binding at 1 µM [16] [%] | remaining binding at 1 µM [17] [%] | remaining binding at 1 µM [18] [%] | remaining binding at 1 µM [19] [%] | remaining binding at 1 µM [20] [%] | other results |
| --- | --- | --- | --- | --- | --- | --- | --- | --- | --- | --- | --- | --- | --- | --- | --- | --- | --- | --- | --- | --- | --- |
| CCN1CCN(Cc2ccc(Nc3nc4ccc(Oc5ccnc(NC(C)=O)c5)cc4n3C)cc2C(F)(F)F)CC1 [Compound I-2] | 91 | 100 | 100 | 86 | 90 | 66 | 0.1 | 100 | 45 | 100 | 7.6 | 69 | 100 | 76 | 83 | 78 | 84 | 87 | 100 | 56 | remaining binding at 1 µM [21]: 100%; remaining binding at 1 µM [22]: 100%; remaining binding at 1 µM [23]: 32%; remaining binding at 1 µM [24]: 60%; remaining binding at 1 µM [25]: 14%; remaining binding at 1 µM [26]: 62%; remaining binding at 1 µM [27]: 86%; remaining binding at 1 µM [28]: 91%; remaining binding at 1 µM [29]: 92%; remaining binding at 1 µM [30]: 69%; remaining binding at 1 µM [31]: 95%; remaining binding at 1 µM [32]: 100%; remaining binding at 1 µM [33]: 100%; remaining binding at 1 µM [34]: 0.05%; remaining binding at 1 µM [35]: 79%; remaining binding at 1 µM [36]: 16%; remaining binding at 1 µM [37]: 72%; remaining binding at 1 µM [38]: 100%; IC50 [39]: 794 nM |
| CCN1CCN(Cc2ccc(Nc3nc4ccc(Oc5ccnc(NC(C)=O)c5)c(C)c4n3C)cc2C(F)(F)F)CC1 [Compound I-6, N-(4-(2-(4-((4-ethylpiperazin-1-yl)methyl)-3-(trifluoromethyl)phenylamino)-1,7-dimethyl-1H-benzo[d]imidazol-6-yloxy)pyridin-2-yl)acetamide] | 69 | 81 | 96 | 16 | 66 | 91 | 0 | 99 | 11 | 98 | 0.4 | 98 | 87 | 82 | 93 | 87 | 87 | 99 | 75 | 50 | remaining binding at 1 µM [21]: 99%; remaining binding at 1 µM [22]: 93%; remaining binding at 1 µM [23]: 59%; remaining binding at 1 µM [24]: 85%; remaining binding at 1 µM [25]: 16%; remaining binding at 1 µM [26]: 86%; remaining binding at 1 µM [27]: 100%; remaining binding at 1 µM [28]: 90%; remaining binding at 1 µM [29]: 100%; remaining binding at 1 µM [30]: 61%; remaining binding at 1 µM [31]: 100%; remaining binding at 1 µM [32]: 60%; remaining binding at 1 µM [33]: 100%; remaining binding at 1 µM [34]: 0%; remaining binding at 1 µM [35]: 75%; remaining binding at 1 µM [36]: 9.3%; remaining binding at 1 µM [37]: 100%; remaining binding at 1 µM [38]: 97%; IC50 [39]: 980 nM |
